Reference: PubChem BioAssay (NCI)
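Exposure lasted 48 hours, with cells grown in 96-well plates and compounds tested at five concentrations. TGI marks complete inhibition of growth.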

Key:
Test in all cases: DTP human tumour cell line panel, 48 h
NCI/ADR-RES ovarian = tested on: NCI/ADR-RES ovarian
RXF 393 renal = tested on: RXF 393 renal
HT29 colon = tested on: HT29 colon
SNB-75 CNS = tested on: SNB-75 CNS
MDA-MB-231 breast = tested on: MDA-MB-231 breast
U251 CNS = tested on: U251 CNS
HL-60(TB) leukemia = tested on: HL-60(TB) leukemia
SR leukemia = tested on: SR leukemia
MDA-N = tested on: MDA-N
TK-10 renal = tested on: TK-10 renal
SW-620 colon = tested on: SW-620 colon
K-562 leukemia = tested on: K-562 leukemia
HCT-15 colon = tested on: HCT-15 colon
UACC-257 melanoma = tested on: UACC-257 melanoma
CAKI-1 renal = tested on: CAKI-1 renal
A549 NSCLC = tested on: A549 NSCLC
KM12 colon = tested on: KM12 colon
OVCAR-8 ovarian = tested on: OVCAR-8 ovarian
MCF7 breast = tested on: MCF7 breast
NCI-H23 lung = tested on: NCI-H23 lung
MOLT-4 leukemia = tested on: MOLT-4 leukemia
UO-31 renal = tested on: UO-31 renal
HOP-62 NSCLC = tested on: HOP-62 NSCLC
786-0 renal = tested on: 786-0 renal
SK-MEL-5 melanoma = tested on: SK-MEL-5 melanoma
LOX IMVI melanoma = tested on: LOX IMVI melanoma
SF-295 CNS = tested on: SF-295 CNS
CCRF-CEM leukemia = tested on: CCRF-CEM leukemia
OVCAR-3 ovarian = tested on: OVCAR-3 ovarian
UACC-62 melanoma = tested on: UACC-62 melanoma
M14 melanoma = tested on: M14 melanoma
SNB-19 CNS = tested on: SNB-19 CNS
T-47D breast = tested on: T-47D breast
MDA-MB-435 = tested on: MDA-MB-435
PC-3 prostate = tested on: PC-3 prostate
HOP-92 NSCLC = tested on: HOP-92 NSCLC
SN12C renal = tested on: SN12C renal
IGROV1 ovarian = tested on: IGROV1 ovarian
OVCAR-4 ovarian = tested on: OVCAR-4 ovarian
ACHN renal = tested on: ACHN renal
EKVX NSCLC = tested on: EKVX NSCLC
A498 renal = tested on: A498 renal
DU-145 prostate = tested on: DU-145 prostate
MALME-3M melanoma = tested on: MALME-3M melanoma
BT-549 breast = tested on: BT-549 breast
NCI-H460 lung = tested on: NCI-H460 lung
HS 578T breast = tested on: HS 578T breast
HCT-116 colon = tested on: HCT-116 colon
SK-MEL-2 melanoma = tested on: SK-MEL-2 melanoma
NCI-H226 lung = tested on: NCI-H226 lung
RPMI-8226 leukemia = tested on: RPMI-8226 leukemia
HCC-2998 colon = tested on: HCC-2998 colon
SF-268 CNS = tested on: SF-268 CNS
COLO 205 colon = tested on: COLO 205 colon
NCI-H522 lung = tested on: NCI-H522 lung
OVCAR-5 ovarian = tested on: OVCAR-5 ovarian
SK-MEL-28 melanoma = tested on: SK-MEL-28 melanoma
SF-539 CNS = tested on: SF-539 CNS

Which TGI (NCI/ADR-RES ovarian) does the source give for `O=c1c2cc([N+](=O)[O-])ccc2n(Cc2ccccc2)n1Cc1ccccc1` here?
The TGI was 20.3 µM.

And the TGI (RXF 393 renal)?
The TGI was greater than 31.6 µM.

And the TGI (HT29 colon)?
Its TGI is greater than 31.6 µM.

What about the TGI (SNB-75 CNS) of the same compound?
The TGI was greater than 31.6 µM.

And the TGI (MDA-MB-231 breast)?
The TGI was 29.1 µM.

What about the TGI (U251 CNS) of the same compound?
Its TGI is greater than 31.6 µM.

And the TGI (HL-60(TB) leukemia)?
The TGI was 22.7 µM.

What about the TGI (SR leukemia) of the same compound?
The TGI was greater than 31.6 µM.

What about the TGI (MDA-N) of the same compound?
The TGI was 21.2 µM.

What about the TGI (TK-10 renal) of the same compound?
The TGI was greater than 31.6 µM.

And the TGI (SW-620 colon)?
Its TGI is greater than 31.6 µM.

And the TGI (K-562 leukemia)?
The TGI was greater than 31.6 µM.

What about the TGI (HCT-15 colon) of the same compound?
The TGI was greater than 31.6 µM.

What about the TGI (UACC-257 melanoma) of the same compound?
The TGI was 19.8 µM.

And the TGI (CAKI-1 renal)?
The TGI was greater than 31.6 µM.

And the TGI (A549 NSCLC)?
Its TGI is greater than 31.6 µM.

And the TGI (KM12 colon)?
Its TGI is 22.2 µM.

And the TGI (OVCAR-8 ovarian)?
Its TGI is 22.4 µM.

What about the TGI (MCF7 breast) of the same compound?
The TGI was 28.6 µM.

What about the TGI (NCI-H23 lung) of the same compound?
The TGI was greater than 31.6 µM.

What about the TGI (MOLT-4 leukemia) of the same compound?
The TGI was greater than 31.6 µM.

What about the TGI (UO-31 renal) of the same compound?
The TGI was 27.3 µM.

What about the TGI (HOP-62 NSCLC) of the same compound?
Its TGI is greater than 31.6 µM.

What about the TGI (786-0 renal) of the same compound?
Its TGI is greater than 31.6 µM.

What about the TGI (SK-MEL-5 melanoma) of the same compound?
The TGI was 13.3 µM.

And the TGI (LOX IMVI melanoma)?
The TGI was greater than 31.6 µM.

What about the TGI (SF-295 CNS) of the same compound?
The TGI was greater than 31.6 µM.

And the TGI (CCRF-CEM leukemia)?
Its TGI is greater than 31.6 µM.

What about the TGI (OVCAR-3 ovarian) of the same compound?
Its TGI is greater than 31.6 µM.

And the TGI (UACC-62 melanoma)?
The TGI was 21.4 µM.

And the TGI (M14 melanoma)?
Its TGI is 20.7 µM.

What about the TGI (SNB-19 CNS) of the same compound?
The TGI was greater than 31.6 µM.

What about the TGI (T-47D breast) of the same compound?
The TGI was 24.7 µM.

And the TGI (MDA-MB-435)?
The TGI was 17.5 µM.

And the TGI (PC-3 prostate)?
Its TGI is 31 µM.

And the TGI (HOP-92 NSCLC)?
The TGI was greater than 31.6 µM.

What about the TGI (SN12C renal) of the same compound?
The TGI was greater than 31.6 µM.

What about the TGI (IGROV1 ovarian) of the same compound?
The TGI was greater than 31.6 µM.

And the TGI (OVCAR-4 ovarian)?
The TGI was greater than 31.6 µM.

What about the TGI (ACHN renal) of the same compound?
Its TGI is greater than 31.6 µM.

What about the TGI (EKVX NSCLC) of the same compound?
Its TGI is greater than 31.6 µM.

What about the TGI (A498 renal) of the same compound?
Its TGI is greater than 31.6 µM.

And the TGI (DU-145 prostate)?
Its TGI is greater than 31.6 µM.

And the TGI (MALME-3M melanoma)?
Its TGI is greater than 31.6 µM.

What about the TGI (BT-549 breast) of the same compound?
Its TGI is 27 µM.

And the TGI (NCI-H460 lung)?
Its TGI is 26.9 µM.

And the TGI (HS 578T breast)?
Its TGI is greater than 31.6 µM.

What about the TGI (HCT-116 colon) of the same compound?
Its TGI is greater than 31.6 µM.

What about the TGI (SK-MEL-2 melanoma) of the same compound?
Its TGI is 20.2 µM.

And the TGI (NCI-H226 lung)?
The TGI was greater than 31.6 µM.

What about the TGI (RPMI-8226 leukemia) of the same compound?
Its TGI is 18.8 µM.

And the TGI (HCC-2998 colon)?
Its TGI is greater than 31.6 µM.

And the TGI (SF-268 CNS)?
Its TGI is greater than 31.6 µM.

And the TGI (COLO 205 colon)?
Its TGI is greater than 31.6 µM.

What about the TGI (NCI-H522 lung) of the same compound?
The TGI was 23.6 µM.

What about the TGI (OVCAR-5 ovarian) of the same compound?
Its TGI is greater than 31.6 µM.

And the TGI (SK-MEL-28 melanoma)?
Its TGI is greater than 31.6 µM.

What about the TGI (SF-539 CNS) of the same compound?
The TGI was greater than 31.6 µM.
